This note sets out measurements from PubChem BioAssay AID1259408 (Genetic Toxicology Data Bank (GENE-TOX), 2018).

In this series the test system is GENE-TOX genotoxicity assays, various organisms and cells. As to the kind of experiment: GENE-TOX mutagenicity studies. The settings on record: for call: Assay Type: In vivo carcinogenicity studies.
Where [1] appears, read: Species/Cell Type: Human, Assay Type: Sister-chromatid exchange (SCE) in vitro, Assay Code: SC1T, Evaluation Type: Evaluation B (Post-1980).
Setting [2] is: Species/Cell Type: Salmonella typhimurium (one or more of the five standard strains: TA98, TA100, TA1535, TA1537, and TA1538), Assay Type: Histidine reverse gene mutation, Ames assay, Assay Code: SALT, Evaluation Type: Evaluation A (Pre-1980).
Where [3] appears, read: Species/Cell Type: Nonhuman, Assay Code: CCG-, Evaluation Type: Evaluation A (Pre-1980).
The mark [4] stands for this setting: Species/Cell Type: Nonhuman, Assay Type: Sister-chromatid exchange (SCE) in vitro, Assay Code: SC2T, Evaluation Type: Evaluation A (Pre-1980).
The mark [5] stands for this setting: Species/Cell Type: Salmonella typhimurium (one or more of the five standard strains: TA98, TA100, TA1535, TA1537, and TA1538), Assay Type: Histidine reverse gene mutation, Ames assay, Assay Code: SAL-, Evaluation Type: Evaluation A (Pre-1980).
The mark [6] stands for this setting: Species/Cell Type: Escherichia coli polA (W3119 vs P3478), Assay Type: Rec-assay, DNA effects (bacterial DNA repair), Assay Code: RE1T, Evaluation Type: Evaluation A (Pre-1980).
Setting [7] is: Species/Cell Type: Salmonella typhimurium (one or more of the five standard strains: TA98, TA100, TA1535, TA1537, and TA1538), Assay Type: Histidine reverse gene mutation, Ames assay, Assay Code: SAL+, Evaluation Type: Evaluation A (Pre-1980).
The mark [8] stands for this setting: Species/Cell Type: Drosophila melanogaster, Assay Type: Sex-linked recessive lethal gene mutation, Assay Code: SRL+, Evaluation Type: Evaluation A (Pre-1980).
Where [9] appears, read: Species/Cell Type: Schizosaccharomyces pombe, Assay Type: Reverse gene mutation, Assay Code: YEZ+, Evaluation Type: Evaluation A (Pre-1980).
The mark [10] stands for this setting: Species/Cell Type: Salmonella typhimurium (one or more of the five standard strains: TA98, TA100, TA1535, TA1537, and TA1538), Assay Type: Histidine reverse gene mutation, Ames assay, Assay Code: SAL+*, Activation: With metabolic activation, Evaluation Type: Evaluation A (Pre-1980).
Where [11] appears, read: Species/Cell Type: Nonhuman, Assay Code: CCG+, Evaluation Type: Evaluation A (Pre-1980).

Calls of active or inactive are those of the source. How the calls were made is not given here.

As to `CCNCC`, the mutagenic call (Species/Cell Type: Saccharomyces cerevisiae, Assay Type: Forward gene mutation, Assay Code: YEF-*, Activation: With metabolic activation, Evaluation Type: Evaluation A (Pre-1980)) was “inactive; negative”.

On to `O=C(/C=C/c1ccc([N+](=O)[O-])o1)NC1CCCCC1`, for which, under “Species/Cell Type: Neurospora crassa, Assay Type: Forward gene mutation, Assay Code: NEF-, Evaluation Type: Evaluation A (Pre-1980)”, the mutagenic call is “inactive; negative”.

As for `NC(=O)N1c2ccccc2C=Cc2ccccc21`, the mutagenic call (Species/Cell Type: Human lymphocytes, Assay Type: Sister-chromatid exchange (SCE) in vitro, Assay Code: SCLT, Evaluation Type: Evaluation B (Post-1980)) was “no conclusion”; the mutagenic call under setting [1] is listed as “no conclusion”; the mutagenic call under setting [2] is reported as “no conclusion”.

As to `O=S(=O)(O)c1ccc(N=Nc2c(O)ccc3cc(S(=O)(=O)O)ccc23)cc1`, the mutagenic call by setting is: (Species/Cell Type: Bacillus subtilis (H17 vs M45), Assay Type: Rec-assay, spot test, DNA effects (bacterial DNA repair), Assay Code: REWT, Evaluation Type: Evaluation A (Pre-1980)) “no conclusion”; (Species/Cell Type: Bacillus subtilis (H17 vs M45T), Assay Type: Rec-assay, spot test, DNA effects (bacterial DNA repair), Assay Code: REXT, Evaluation Type: Evaluation A (Pre-1980)) “no conclusion”; under setting [4], “no conclusion”; (Species/Cell Type: Saccharomyces cerevisiae, Assay Type: Mitotic recombination or gene conversion, Assay Code: YEC-, Evaluation Type: Evaluation A (Pre-1980)) “inactive; negative”; under setting [5], “inactive; negative”. Besides, under setting [3], the call was “inactive; negative”.

As to `O=C(O)CN(CCN(CC(=O)O)CC(=O)O)CC(=O)O`, the mutagenic call (Species/Cell Type: Allium cepa, Assay Type: Chromosome aberrations, Assay Code: ALC+, Evaluation Type: Evaluation A (Pre-1980)) was “active; positive”; the mutagenic call (Species/Cell Type: Arabidopsis species, Assay Type: Gene mutation, Assay Code: ARM-, Evaluation Type: Evaluation A (Pre-1980)) is “inactive; negative”; the mutagenic call under setting [5] was “inactive; negative”. Moreover, under setting [3], the call was “inactive; negative”.

`Cc1cc2c(C(C)C)c(O)c(O)c(C=O)c2c(O)c1-c1c(C)cc2c(C(C)C)c(O)c(O)c(C=O)c2c1O`: the mutagenic call runs as follows: (Species/Cell Type: Human lymphocytes, Assay Type: Sister-chromatid exchange (SCE) in vitro, Assay Code: SCL+, Evaluation Type: Evaluation B (Post-1980)) “active; positive”; (Species/Cell Type: Human, Assay Type: Sister-chromatid exchange (SCE) in vitro, Assay Code: SC1+, Evaluation Type: Evaluation B (Post-1980)) “active; positive”; (Species/Cell Type: Human, Sex: Male, Assay Type: Sperm morphology, Assay Code: SPH+, Evaluation Type: Evaluation A (Pre-1980)) “active; positive”; (Species/Cell Type: Mouse, Sex: Male, Assay Type: Sperm morphology, Assay Code: SPI+, Evaluation Type: Evaluation A (Pre-1980)) “active; positive”; (Species/Cell Type: Rabbit, Sex: Male, Assay Type: Sperm morphology, Assay Code: SPRT, Evaluation Type: Evaluation A (Pre-1980)) “no conclusion”; (Species/Cell Type: Rat, Sex: Male, Assay Type: Sperm morphology, Assay Code: SPA+, Evaluation Type: Evaluation A (Pre-1980)) “active; positive”.

Turning to `CC[C@@]1(O)C[C@H](O[C@H]2C[C@H](N(C)C)[C@H](O[C@H]3C[C@H](O)[C@H](O[C@H]4CCC(=O)[C@H](C)O4)[C@H](C)O3)[C@H](C)O2)c2c(cc3c(c2O)C(=O)c2c(O)cccc2C3=O)[C@H]1C(=O)OC`, the mutagenic call under setting [2] is “no conclusion”.

On to `CN(C)C=O`, for which the mutagenic call runs as follows: (Species/Cell Type: Mammalian polychromatic erythrocytes, Assay Type: Micronucleus test, chromosome aberrations, Assay Code: MNTT, Evaluation Type: Evaluation A (Pre-1980)) “no conclusion”; (Species/Cell Type: Mouse, Sex: Male, Assay Type: Sperm morphology, Assay Code: SPI-, Evaluation Type: Evaluation A (Pre-1980)) “inactive; negative”; (Species/Cell Type: Nonhuman, Assay Type: Sister-chromatid exchange (SCE) in vitro, Assay Code: SC2+, Evaluation Type: Evaluation B (Post-1980)) “active; positive”; (Species/Cell Type: Rat primary hepatocytes, Assay Type: Unscheduled DNA synthesis (UDS) in vitro, DNA effects, Assay Code: UDP-, Evaluation Type: Evaluation A (Pre-1980)) “inactive; negative”; (Species/Cell Type: Syrian hamster embryo (SHE) cells, Assay Type: Cell transformation, clonal assay, Assay Code: CTC-, Evaluation Type: Evaluation A (Pre-1980)) “inactive; negative”.

As to `O=C1c2ccccc2-c2ccccc21`, the mutagenic call under setting [6] was “no conclusion”.

Turning to `O=C1c2ccccc2C(=O)c2c(O)c(S(=O)(=O)O)cc(O)c21`, the mutagenic call under setting [7] is “active; positive”.

On to `OC1C=Cc2c(cc3ccc4cccc5ccc2c3c45)C1O` (stereo unspecified), for which the mutagenic call (Species/Cell Type: Chinese hamster lung (V79) cells, Assay Type: Forward gene mutation at the HPRT or ouabain locus, Assay Code: V79+, Evaluation Type: Evaluation A (Pre-1980)) is “active; positive”.

For `NS(=O)(=O)c1cc(C(=O)O)c(NCc2ccco2)cc1Cl`, the mutagenic call under setting [1] is on record as “no conclusion”; the mutagenic call (Species/Cell Type: Saccharomyces cerevisiae, Assay Type: Mitotic recombination or gene conversion, Assay Code: YEC-*, Activation: With metabolic activation, Evaluation Type: Evaluation A (Pre-1980)) is “inactive; negative”; the mutagenic call under setting [2] was “no conclusion”.

In the case of `CCCNP(=O)(N1CC1)N1CC1`, the mutagenic call under setting [8] was “active; positive”; the mutagenic call (Species/Cell Type: Nonhuman, Assay Type: Chromosome aberrations in vitro, Assay Code: CY&+, Evaluation Type: Evaluation A (Pre-1980)) is “active; positive”; the mutagenic call under setting [9] was “active; positive”.

As to `S=C(S)NCCNC(=S)S`, under “Species/Cell Type: Allium cepa, Assay Type: Chromosome aberrations, Assay Code: ALC+D, Dose Response: With dose response, Evaluation Type: Evaluation A (Pre-1980)”, the mutagenic call was “active; positive”.

With `CC1C=Cc2c1ccc1c2ccc2ccccc21` (stereo unspecified), under setting [10], the mutagenic call is “active; positive”.

As for `CCC(=O)N(C)N=O`, the mutagenic call (Species/Cell Type: Saccharomyces cerevisiae, Assay Type: Reverse gene mutation, Assay Code: YER+, Evaluation Type: Evaluation A (Pre-1980)) is “active; positive”.

As for `CC(=O)Nc1ccc([C@@H]2O[C@@H]2c2ccccc2)cc1`, under setting [2], the mutagenic call is “no conclusion”.

As to `NCCBr`, under setting [9], the mutagenic call was “active; positive”.

Take `O[C@H]1C=Cc2cc3c(ccc4ccccc43)cc2[C@@H]1O`: the mutagenic call (Species/Cell Type: Chinese hamster lung (V79) cells, Assay Type: Forward gene mutation at the HPRT or ouabain locus, Assay Code: V79-*, Activation: With metabolic activation, Evaluation Type: Evaluation A (Pre-1980)) is “inactive; negative”; the mutagenic call (Species/Cell Type: Nonhuman, Assay Type: Sister-chromatid exchange (SCE) in vitro, Assay Code: SC2+D, Dose Response: With dose response, Evaluation Type: Evaluation B (Post-1980)) was “active; positive”; the mutagenic call under setting [2] was “no conclusion”. For the setting “Species/Cell Type: Nonhuman, Assay Code: CCGT, Evaluation Type: Evaluation A (Pre-1980)”, the call was “no conclusion”.

Take `O=[N+]([O-])c1cccc([N+](=O)[O-])c1Cl`: the mutagenic call under setting [6] was “no conclusion”.

Regarding `O=C(NO)c1ccccc1`, under setting [7], the mutagenic call is “active; positive”.

Regarding `CCCCNCCCCO`, the mutagenic call (Species/Cell Type: Nonhuman, Assay Type: Chromosome aberrations in vitro, Assay Code: CY&-, Evaluation Type: Evaluation A (Pre-1980)) was “inactive; negative” and the mutagenic call under setting [4] was “no conclusion”.

As for `C[As](SC#N)SC#N`, where the note is “Species/Cell Type: Bacillus subtilis (H17 vs M45), Assay Type: Rec-assay, spot test, DNA effects (bacterial DNA repair), Assay Code: REW+, Evaluation Type: Evaluation A (Pre-1980)”, the mutagenic call is “active; positive”.

For `NCCCCNCCCN`, the mutagenic call under setting [2] is on record as “no conclusion”.

As for `Nc1ccc(N=Nc2ccccc2)c(N)n1`, the call under setting [11] is “active; positive”.

For `CN=[N+](C)[O-]`, the mutagenic call under setting [8] was “active; positive”; the mutagenic call (Species/Cell Type: Mouse (BALB/c-3T3) cells, Assay Type: Cell transformation, Assay Code: CTB-, Evaluation Type: Evaluation A (Pre-1980)) is “inactive; negative”; the mutagenic call under setting [10] is “active; positive”; the mutagenic call (Species/Cell Type: Salmonella typhimurium, Assay Type: Forward and reverse gene mutation, host-mediated assay, Assay Code: HMA+, Evaluation Type: Evaluation A (Pre-1980)) was “active; positive”. Besides, the call under setting [11] was “active; positive”.

Turning to `OC1c2cccc3ccc4cc5ccccc5c(c4c23)C1O` (stereo unspecified), the mutagenic call (Species/Cell Type: Chinese hamster lung (V79) cells, Assay Type: Forward gene mutation at the HPRT or ouabain locus, Assay Code: V79-, Evaluation Type: Evaluation A (Pre-1980)) is “inactive; negative”.

`OC1CCCCC1`: the mutagenic call (Species/Cell Type: Allium cepa, Assay Type: Chromosome aberrations, Assay Code: ALC-, Evaluation Type: Evaluation A (Pre-1980)) is “inactive; negative”.

On to `Nc1ccc2c(ccc3ccccc32)n1`, for which the mutagenic call under setting [10] was “active; positive”.

Turning to `c1ccc2c(c1)cc1ccc3c4ccccc4cc4ccc2c1c43`, under setting [11], the call is “active; positive”.
